The values that follow come from patent publication US20110165173A1, “THERAPEUTIC AGENT AND DETECTION REAGENT FOR ARTERIOSCLEROTIC DISEASE WHICH TARGETS FOR SALUSIN” (PROTEINEXPRESS CO., LTD., priority 2007, published 2011).

Assay [1] deals with human monocyte-derived macrophages. Nature of the assay: Cholesterol esterification assay: foaming of human monocyte-derived macrophages caused by AcLDL. In kind it is cell-based. Conditions: 0.6 nM; 5 μg/mL AcLDL added on Day 7. On the procedure:
Cholesterol esterification assay was employed as a method for assaying foaming of macrophages [Goldstein J L et al., Methods Enzymol. 1983; 98: 241-260]. Macrophages cause acetylated LDL (AcLDL) to be incorporated into cells via scavenger receptors so as to result in lysosome degradation. Free cholesterol produced in a lysosome is transferred to ACAT and converted into cholesterol ester as a result of ACAT reaction. If [^3H]oleate is added to a medium, [^3H]oleate is incorporated into cells and converted into [^3H]oleoyl-CoA by acyl CoA synthase. ACAT produces cholesterol [^3H]oleate with the use of as substrates, AcLDL-derived free cholesterol and [^3H]oleoyl-CoA obtained as above. The radioactivity of cholesterol [^3H]oleate accumulated in cells can serve as a sensitive indicator for cholesterol ester accumulation (FIG. 7).
LDL (d=1.019-1.063) was purified from human blood plasma by sequential flotation ultracentrifugation [Schumaker VN et al., Methds Enzymol. 1986; 128: 155-170]. […] The volume of the obtained blood plasma fraction from which chylomicron and VLDL had been removed was measured with a volumetric flask. […]
Equivalent volumes of LDL (protein: 30 mg) (15 mL if 2.0 mg protein/mL) and saturated sodium acetate were mixed together. […] At this time, pH was monitored with a pH meter with the dropwise addition of 5 N NaOH thereto such that the pH could be maintained at more than 6.5. […]

The subject of assay [2] is ACAT-1 protein expression. Nature of the assay: ACAT-1 protein expression in cultured human monocyte-derived macrophages after differentiation (Western blotting). Format: cell-based. As to conditions: cultured 3 more days. On the procedure:
For ACAT-1 protein detection, an anti-human ACAT-1 polyclonal antibody (DM10 donated from Dr. Chang, Dartmouth Medical School) [Chang CCY et al., J Biol Chem. 1995; 270: 29532-29540] prepared by immunizing a rabbit was used as a primary antibody (final concentration: 0.5 μg/mL) for a reaction on a transfer membrane at room temperature for 1 hour. The transfer membrane was washed with PBS-0.1% Tween 20, followed by a reaction with a secondary antibody (anti-rabbit IgG antibody: anti-rabbit IgG donkey antibody conjugated with horseradish peroxidase (HRP) (GE Healthcare Bio-Science)) at room temperature for 1 hour. For a secondary antibody, a stock solution (0.5 μL) was diluted 10,000-fold with PBS-0.1% Tween 20 (5 mL), and the resultant was used. Washing was carried out with PBS-0.1% Tween 20, followed by ACAT-1 protein detection with the use of Lumi-Light Plus (PerkinElmer Life Sciences).
In each of the experiments in Examples 1 to 6, salusin-α and salusin-β were added in the phase of differentiation of cultured human monocytes into macrophages and cells obtained on Day 7 of culture were used to examine the effects of salusin-α and salusin-13. In this Example, it was examined whether salusin-α and salusin-β would have similar effects on ACAT-1 protein expression in macrophages obtained after differentiation. […]

Assay [3] concerns macrophages of apoE-deficient mice. The assay can be described thus: Foaming (oxidized LDL-induced cholesterol ester accumulation) of macrophages collected from treated apoE-deficient mice. In kind it is in vivo. As to conditions: 0.6 nmol/kg/h, four weeks. Here is the method:
13-week-old male apoE-deficient mice (72 mice) were divided into the following 6 groups: (i) physiological salt saline (control); (ii) salusin-α (0.6 nmol/kg/h); (iii) salusin-β (0.6 nmol/kg/h); (iv) salusin-α (0.6 nmol/kg/h)+anti-salusin-α serum (1.4 μg/kg/h); (v) salusin-β (0.6 nmol/kg/h)+anti-salusin-β serum (1.4 μg/kg/h); and (vi) anti-salusin-β serum (1.4 μg/kg/h). The mice were subjected to continuous subcutaneous administration with the use of an osmotic mini-pump for 4 to 8 weeks. The osmotic mini-pump and the solution contained therein were changed every week.
On Day 4 after intraperitoneal administration of thioglycollate, transudatory macrophages were collected and cultured with an RPMI1640 solution containing 10% bovine fetal serum. Oxidized LDL (10 μg/mL) and [^3H] oleic acid (0.1 mM) were added to the culture solution. After 13 hours, the radioactivity of intracellularly accumulated cholesterol [^3H] oleic acid was assayed for evaluation of foaming of macrophages.

For the substance “salusin-β: peptide (SEQ ID NO: 3) comprising 20 amino acid residues, generated by processing from preprosalusin (AIFIFIRWLLKLGHHGRAPP; listed as Homo sapiens) [reference compound]”, the “accumulation of cholesterol [3H]oleate caused by AcLDL relative to control cells” value in assay [1] turned out to be 1.6 times. Also, the “ACAT-1 protein expression level relative to control” value in assay [2] (0.6 nM added on Day 7 after differentiation) worked out at 2.2 times. Further, the “foaming of macrophages due to oxidized LDL relative to control” value in assay [3] (P<0.01) is “approximately 2 times”.
Take “salusin-α: peptide (SEQ ID NO: 1) comprising 28 amino acid residues, generated by processing from preprosalusin (SGALPPAPAAPRPALRAQRAGPAGPGAK; listed as Homo sapiens)”: the “accumulation of cholesterol [3H]oleate caused by AcLDL, percent of loaded control cells” value in assay [1] worked out at 50%. For the same substance, in assay [2] (1.0 nM added on Day 7 after differentiation), the “ACAT-1 protein expression level, percent of that of the control” value amounted to 60%. In assay [3] (P<0.05), the “foaming of macrophages due to oxidized LDL (intracellular cholesterol ester accumulation), fraction of control” value is listed as “approximately ¼”.
